Results: ChEMBL document CHEMBL1201862, “PubChem BioAssay data set” (2004)
“And” between values parts separate entries of the source, which are not always exact repeats. Equal entries are not always repeated. The source made the active and inactive calls.

How the values were obtained:
[1] = cytotoxicity in HEK-293T cells, dose response, cytotoxicity control for BCR NF-kB inhibitor project, luminescence, B-cell screen hits (AID 489021); type: functional, cell-based;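 note: HEK-293T cells carrying an NF-kB luciferase reporter; cells exposed to compound for about 14 hours before viability readout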
[2] = biological target: G-protein coupled receptor 55 (Homo sapiens, UniProt Q9Y2T6); experiment: GPR55 antagonists, SAR follow-up, counter-screen for GPR35 antagonist project, imaging, image-based (AID 2397); type: functional
[3] = biological target: G-protein coupled receptor 35 (Homo sapiens, UniProt Q9HC97); experiment: SAR Analysis for the identification of Selective Antagonists of ERK1/2 Activity in GPR35-Overexpressing U2OS Cells. [Related pubchem assays: 2079, 2058 ]; type: functional, cell-based
[4] = biological target: Lysine-specific demethylase 4C (Homo sapiens, UniProt Q9H3R0); experiment: GASC-1 (JMJD2C) histone demethylase inhibitors, dose response, biochemical, DELFIA europium, cherry-picked samples (AID 488835); type: functional
[5] = biological target: Peroxisome proliferator-activated receptor gamma/Nuclear receptor coactivator 2 (Homo sapiens, UniProt P37231); type: functional;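 note: agonist potency for raising coactivator recruitment to the receptor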
A-375 [6] = experiment: MITF: Counter assay: A375 proliferation Measured in Cell-Based System Using Plate Reader - 2084-03_Inhibitor_Dose_DryPowder_Activity. [Related pubchem assays (depositor defined):AID488944]; type: functional; conditions: Homo sapiens
[7] = biological target: Peroxisome proliferator-activated receptor gamma/Nuclear receptor coactivator 3 (Homo sapiens, UniProt P37231); type: functional;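 note: agonist potency for raising coactivator recruitment to the receptor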
[8] = biological target: Peroxisome proliferator-activated receptor gamma/Nuclear receptor coactivator 1 (Homo sapiens, UniProt P37231); type: functional;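 note: agonist potency as compounds enhance coactivator SRC-1 recruitment to PPARgamma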
A-375 [9] = experiment: A375 melanoma cell viability reduction, dose response, counter-screen for MITF modulator project, cherry-pick samples, set 2 (AID 540335); type: functional, cell-based; conditions: Homo sapiens
[10] = A Cell-Based Confirmatory Screen for Compounds that Inhibit VEEV, TC-83 (3).; type: functional
[11] = A Cell-Based Counter Screen testing Compounds that Inhibit VEEV TC-83, in strain KU V3526.; type: functional
[12] = A Cell-Based Confirmatory Screen for Compounds that Inhibit VEEV, TC-83 (2).; type: functional
[13] = A Cell-Based Confirmatory Screen for Compounds that Inhibit VEEV, TC-83 (8).; type: functional
[14] = A Cell-Based Confirmatory Screen for Compounds that Inhibit VEEV, TC-83 (7).; type: functional
Vero = experiment: cells; type: functional, cell-based; conditions: Chlorocebus sabaeus
[15] = A Cell-Based Confirmatory Screen for Compounds that Inhibit VEEV TC-83 (4).; type: functional
[16] = A Cell-Based Confirmatory Screen for Compounds that Inhibit VEEV, TC-83 (6).; type: functional
[17] = cytotoxicity in HMLE control line with eGFP shRNA, dose response, counter-screen for HMLE_sh_ECad selective toxicity project, cell-based, HMLE_sh_eGFP, luminescence (AID 463074); type: functional, Homo sapiens;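 note: HMLE human mammary epithelial cells expressing control shRNA against eGFP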
[18] = Luminescence Cell-Based Dose Retest to Confirm Inhibitors of Cancer Stem Cells. [Related pubchem assays (depositor defined):AID2717, AID2721]; type: functional; conditions: Homo sapiens

Sequence of Lysine-specific demethylase 4C (Q9H3R0 whole entry): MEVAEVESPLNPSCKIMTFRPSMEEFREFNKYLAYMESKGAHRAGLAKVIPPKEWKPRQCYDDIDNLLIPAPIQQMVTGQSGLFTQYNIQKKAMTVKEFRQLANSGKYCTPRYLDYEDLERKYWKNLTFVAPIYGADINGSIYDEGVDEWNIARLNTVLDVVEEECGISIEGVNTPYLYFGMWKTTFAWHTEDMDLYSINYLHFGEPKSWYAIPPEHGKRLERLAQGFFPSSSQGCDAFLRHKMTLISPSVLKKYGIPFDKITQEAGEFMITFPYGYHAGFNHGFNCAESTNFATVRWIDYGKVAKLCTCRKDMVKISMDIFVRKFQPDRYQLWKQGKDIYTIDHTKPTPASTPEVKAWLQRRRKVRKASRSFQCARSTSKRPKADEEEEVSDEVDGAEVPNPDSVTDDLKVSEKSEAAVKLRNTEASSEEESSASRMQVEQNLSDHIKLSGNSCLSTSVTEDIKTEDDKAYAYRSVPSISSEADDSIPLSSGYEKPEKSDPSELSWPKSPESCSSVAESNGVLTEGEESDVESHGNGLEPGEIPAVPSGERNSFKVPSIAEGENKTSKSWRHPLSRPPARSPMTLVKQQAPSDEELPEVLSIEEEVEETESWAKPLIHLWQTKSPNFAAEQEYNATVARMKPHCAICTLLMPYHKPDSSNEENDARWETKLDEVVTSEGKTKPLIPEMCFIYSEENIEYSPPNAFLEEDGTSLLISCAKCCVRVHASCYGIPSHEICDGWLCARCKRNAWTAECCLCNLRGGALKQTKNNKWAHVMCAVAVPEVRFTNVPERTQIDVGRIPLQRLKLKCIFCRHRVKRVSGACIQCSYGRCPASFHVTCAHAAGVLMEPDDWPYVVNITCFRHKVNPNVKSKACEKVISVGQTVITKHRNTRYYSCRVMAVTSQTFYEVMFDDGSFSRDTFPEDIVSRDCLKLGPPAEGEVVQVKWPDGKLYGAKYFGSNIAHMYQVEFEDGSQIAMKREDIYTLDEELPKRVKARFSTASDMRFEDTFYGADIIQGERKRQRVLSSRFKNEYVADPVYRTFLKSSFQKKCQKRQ
Sequence of G-protein coupled receptor 35 (Q9HC97 whole entry): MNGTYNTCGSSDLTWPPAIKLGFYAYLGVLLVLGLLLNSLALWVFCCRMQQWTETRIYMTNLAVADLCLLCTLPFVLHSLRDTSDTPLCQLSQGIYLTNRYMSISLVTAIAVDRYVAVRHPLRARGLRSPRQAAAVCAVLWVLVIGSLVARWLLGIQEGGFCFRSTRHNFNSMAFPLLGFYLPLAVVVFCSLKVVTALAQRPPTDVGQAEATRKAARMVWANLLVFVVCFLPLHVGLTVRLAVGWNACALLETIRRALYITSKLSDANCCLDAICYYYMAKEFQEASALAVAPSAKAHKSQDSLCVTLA
Sequence of G-protein coupled receptor 55 (Q9Y2T6 whole entry): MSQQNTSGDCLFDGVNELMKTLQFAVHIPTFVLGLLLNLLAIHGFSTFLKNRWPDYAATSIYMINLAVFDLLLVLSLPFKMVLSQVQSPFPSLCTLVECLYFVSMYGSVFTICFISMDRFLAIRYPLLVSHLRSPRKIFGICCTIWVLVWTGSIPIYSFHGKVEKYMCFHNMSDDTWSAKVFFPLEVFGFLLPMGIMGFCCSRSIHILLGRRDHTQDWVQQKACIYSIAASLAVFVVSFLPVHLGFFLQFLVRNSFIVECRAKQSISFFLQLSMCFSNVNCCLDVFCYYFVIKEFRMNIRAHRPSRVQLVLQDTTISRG
Sequence of Peroxisome proliferator-activated receptor gamma/Nuclear receptor coactivator 3 (P37231 whole entry): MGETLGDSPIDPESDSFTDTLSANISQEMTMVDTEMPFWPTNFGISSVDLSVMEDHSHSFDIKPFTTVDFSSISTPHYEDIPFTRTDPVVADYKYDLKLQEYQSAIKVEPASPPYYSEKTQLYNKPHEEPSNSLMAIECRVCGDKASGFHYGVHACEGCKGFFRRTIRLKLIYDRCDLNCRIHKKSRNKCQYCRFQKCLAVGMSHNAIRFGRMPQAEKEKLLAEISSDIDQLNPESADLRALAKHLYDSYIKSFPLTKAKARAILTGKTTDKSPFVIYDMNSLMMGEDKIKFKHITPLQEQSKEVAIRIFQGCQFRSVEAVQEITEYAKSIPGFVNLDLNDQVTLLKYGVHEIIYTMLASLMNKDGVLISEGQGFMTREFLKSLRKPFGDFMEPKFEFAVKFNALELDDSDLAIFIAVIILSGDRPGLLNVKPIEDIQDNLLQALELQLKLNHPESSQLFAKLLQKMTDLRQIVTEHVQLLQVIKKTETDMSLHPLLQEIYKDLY
Sequence of Peroxisome proliferator-activated receptor gamma/Nuclear receptor coactivator 3 (Q9Y6Q9 whole entry, further chain): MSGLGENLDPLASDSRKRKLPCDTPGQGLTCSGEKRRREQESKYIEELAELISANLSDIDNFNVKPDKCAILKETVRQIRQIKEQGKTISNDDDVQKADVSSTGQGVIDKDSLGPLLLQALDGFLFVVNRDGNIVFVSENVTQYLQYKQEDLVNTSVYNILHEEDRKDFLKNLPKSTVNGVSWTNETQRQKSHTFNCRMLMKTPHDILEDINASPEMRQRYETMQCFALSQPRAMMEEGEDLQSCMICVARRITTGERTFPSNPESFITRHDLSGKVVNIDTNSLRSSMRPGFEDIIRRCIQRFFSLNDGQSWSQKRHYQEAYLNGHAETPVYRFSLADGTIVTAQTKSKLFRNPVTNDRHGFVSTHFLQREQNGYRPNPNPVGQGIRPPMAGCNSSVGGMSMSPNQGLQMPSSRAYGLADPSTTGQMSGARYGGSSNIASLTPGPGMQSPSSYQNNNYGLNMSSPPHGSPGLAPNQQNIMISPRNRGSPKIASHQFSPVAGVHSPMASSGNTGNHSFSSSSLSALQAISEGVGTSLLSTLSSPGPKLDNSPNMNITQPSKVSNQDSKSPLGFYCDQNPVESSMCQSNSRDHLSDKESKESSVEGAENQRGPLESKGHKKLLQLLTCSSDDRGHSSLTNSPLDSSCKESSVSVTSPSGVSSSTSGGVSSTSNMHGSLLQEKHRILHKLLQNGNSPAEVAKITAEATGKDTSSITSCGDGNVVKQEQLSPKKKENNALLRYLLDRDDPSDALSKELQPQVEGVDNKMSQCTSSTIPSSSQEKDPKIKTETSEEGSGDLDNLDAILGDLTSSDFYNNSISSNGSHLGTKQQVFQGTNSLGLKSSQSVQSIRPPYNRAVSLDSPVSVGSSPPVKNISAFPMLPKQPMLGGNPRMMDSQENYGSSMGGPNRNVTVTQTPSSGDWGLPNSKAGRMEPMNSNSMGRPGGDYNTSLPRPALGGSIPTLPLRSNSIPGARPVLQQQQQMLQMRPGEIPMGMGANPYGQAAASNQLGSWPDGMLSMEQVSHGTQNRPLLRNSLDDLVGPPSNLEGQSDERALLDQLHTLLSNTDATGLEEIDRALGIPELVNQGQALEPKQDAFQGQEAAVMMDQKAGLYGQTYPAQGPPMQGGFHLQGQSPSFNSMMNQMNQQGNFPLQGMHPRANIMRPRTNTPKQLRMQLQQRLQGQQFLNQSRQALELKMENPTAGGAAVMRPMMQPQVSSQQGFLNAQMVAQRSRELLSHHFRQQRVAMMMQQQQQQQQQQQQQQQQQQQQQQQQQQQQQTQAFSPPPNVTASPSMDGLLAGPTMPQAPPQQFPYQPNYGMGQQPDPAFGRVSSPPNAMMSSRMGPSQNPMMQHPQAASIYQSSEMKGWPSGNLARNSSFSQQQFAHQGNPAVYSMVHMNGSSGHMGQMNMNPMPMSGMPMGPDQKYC

SMILES: COc1ccc(/C=C2/SC(=S)N(CCCC(=O)Nc3ccc(O)cc3)C2=O)cc1
- IC50 [1]: > 80 µM (inactive)
- IC50 [2]: > 32 µM (inactive)
- IC50 [3]: > 32 µM (not active)

SMILES: Cc1ccc(NN=Nc2nc3c(=O)n(C)c(=O)n(C)c3[nH]2)cc1
- AC50 [4]: 24.7 µM (active)

SMILES: CC(C)OC(=O)CSc1nc2cc3c(cc2cc1C#N)OCO3
- EC50 [5]: 10.2 µM (not active)
- AC50 (A-375 [6]): > 35 µM (active)
- EC50 [7]: 18.3 µM (not active)
- EC50 [8]: 11.9 µM (not active)
- AC50 (A-375 [9]): > 35 µM (active)

SMILES: CCN1CCN(Cc2nc3ccc([N+](=O)[O-])cc3c(=O)n2-c2ccccc2F)CC1
- IC50 [10]: < 0.96 µM (active)
- IC50 [11]: 0.97 µM (active)
- IC50 [12]: 0.97 µM (active)
- IC50 [13]: 810 nM (active) and 695 nM (active)
- IC50 [14]: 0.81 µM (active)
- IC50 (Vero): 1.91 µM (active)
- IC50 [15]: 0.67 µM (active)
- IC50 [16]: 1.01 µM (active)

SMILES: COc1ccc(C(=O)NNc2ccccc2)cc1
- AC50 [17]: 21.4 µM (active)
- AC50 [18]: 9.98 µM (active)
